Results published in US10344053B2, “Inhibitors for inhibiting tumor metastasis” (Forschungsverbund Berlin e.V., priority 2014, dated 2019).
pKd: −log10 of the molar value. Each block holds one compound with its values, some of them ahead of it.

What was measured:
[1] = molecular target: EVH-1 domain; experiment: Binding affinity to EVH-1 domain by fluorescence titration (FT), Table 1; conditions: for pKd: EVH-1 domain; for FT ΔG: free enthalpy of protein-ligand complex
Experimental: (§1) The substitution of the diproline units of the FPPPP motif with the Fmoc-ProMs was carried out. The binding affinities of the ligands to the domain were subsequently determined by means of isothermal titration calorimetry (ITC) on the basis of the dissociation constant (Kd) or the free enthalpy (ΔG) of the protein-ligand complexes. The results of the measurements were additionally checked by means of fluorescence titration (FT). A stronger binding of the respective ligand is expressed by a smaller value for Kd or a more negative value for ΔG. The correlation between the dissociation constant (Kd) and the free enthalpy (ΔG) is illustrated with the following equations: […]

[2] = molecular target: EVH-1 domain; experiment: Binding affinity to EVH-1 domain by isothermal titration calorimetry (ITC), Table 1; conditions: for pKd / ITC ΔG: ITC; for pKd: EVH-1 domain; for ITC ΔG: free enthalpy of protein-ligand complex
Experimental: as §1

[3] = molecular target: T1, EVL-EVH1 (Homo sapiens, UniProt Q9UI08); experiment: Binding affinity by FT, EVL-EVH1
T1 construct: VASP-EVH-1, EnaH-EVH-1 and EVL-EVH-1 domain
Experimental: as §1
(§2) A further analysis to test the dissociation constant (Kd) of a variety of other compounds was carried out by means of FT and ITC.

[4] = molecular target: T2, VASP-EVH1 (Homo sapiens, UniProt P50552); experiment: Binding affinity by ITC, VASP-EVH1
T2 construct: VASP-EVH-1, EnaH-EVH-1 and EVL-EVH-1 domain
Experimental: as §1, §2

[5] = molecular target: T3, EnaH-EVH1 (Homo sapiens, UniProt Q8N8S7); experiment: Binding affinity by FT, EnaH-EVH1
T3 construct: VASP-EVH-1, EnaH-EVH-1 and EVL-EVH-1 domain
Experimental: as §1, §2

[6] = system: ena/VASP-EVH1; experiment: Inhibition of ena/VASP-EVH1-mediated protein-protein interactions, affinity for the target (statements in words); type: binding; conditions: result in words
[7] = molecular target: T3, EnaH-EVH1; experiment: Binding affinity by ITC, EnaH-EVH1
Experimental: as §1, §2

[8] = molecular target: T2, VASP-EVH1; experiment: Binding affinity by FT, VASP-EVH1
Experimental: as §1, §2

[9] = molecular target: T1, EVL-EVH1; experiment: Binding affinity by ITC, EVL-EVH1
Experimental: as §1, §2

[10] = in vitro; conditions: human, human plasma
[11] = in vitro; type: in vitro ADME; conditions: human, microsomes
[12] = in vitro; conditions: mouse, mouse plasma
[13] = in vitro; type: in vitro ADME; conditions: mouse, microsomes
[14] = in vitro; type: in vitro ADME; conditions: for Plasma stability, % remaining (Tlast 240 min): 4 h; for half-life: plasma
Experimental: An in vitro assay was performed in the plasma of mice and humans.

[15] = system: cells; experiment: Cellular toxicity; type: cell-based; conditions: result in words
Source text: FIG. 2: Cellular toxicity of the compound in accordance with Formula III.
The low or absent cellular toxicity likewise constitutes a surprising and advantageous property of the compounds. The inventive compounds bind to the target receptor not only with very low dissociation constants, but also with high specificity. For medical use of the compounds this is to be considered as an advantage.

[16] = system: MDA MB 231 breast cancer cells; experiment: Matrigel migration assay (chemotaxis and motility); type: cell-based; conditions: relative to the baseline value (DMSO/no FBS gradient)
Experimental: FIG. 1: Inhibition of the chemotaxis and motility of highly invasive tumor cells in a matrigel migration assay.
Cell culture experiments were performed with MDA MB 231 breast cancer cells.
Example Compound III inhibits the migration of MDA MB 231 breast cancer cells by more than 90% relative to the baseline value (DMSO/no FBS gradient) (FIGS. 1 A and B).

[17] = molecular target: T2, VASP-EVH1; experiment: Binding data to VASP-EVH1 (text, method not stated); conditions: text b160
[18] = system: target cells; experiment: Cell experiments: absorption of the compound by target cells; type: cell-based; conditions: ester derivative versus carboxylic acid ligand; result in words
Source text: Within the framework of cell experiments it could further be shown that, by replacing the carboxylic acid ligand with the ester derivative (NBD-Phe(2-CI)-[ProM-2][ProM-1]-OEt), the ability of the compound to be absorbed by the target cells could be improved. The absorption of the substance in the cell could thus be increased, without loss of the advantageous binding properties.

T1 sequence (Q9UI08 1-112 limits assumed): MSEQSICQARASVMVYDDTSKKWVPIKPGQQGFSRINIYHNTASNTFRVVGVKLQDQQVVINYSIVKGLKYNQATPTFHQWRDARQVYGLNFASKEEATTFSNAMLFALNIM
T3 sequence (Q8N8S7 1-111 limits assumed): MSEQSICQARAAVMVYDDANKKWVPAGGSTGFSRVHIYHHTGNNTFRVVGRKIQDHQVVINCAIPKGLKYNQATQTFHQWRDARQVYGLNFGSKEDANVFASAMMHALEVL
T2 sequence (P50552 2-113 limits assumed): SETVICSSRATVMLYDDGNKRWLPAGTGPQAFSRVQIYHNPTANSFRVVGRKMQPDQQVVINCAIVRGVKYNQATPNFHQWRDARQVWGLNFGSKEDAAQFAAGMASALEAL

Compound: CC(=O)NC(Cc1ccccc1Cl)C(=O)N1CCCC12C=CC1CCC(C(=O)N3CCC4C=CC5CCC(C(=O)O)N5C(=O)C43)N1C2=O (stereo not shown) [Ac-Phe(2-Cl)-[ProM-2][ProM-1]-OH, Ac-Phe(2-CI)-[ProM-2]-[ProM-1]-OH]
pKd [1]: 5.57
FT ΔG [1]: -31.8 kJ/mol
improvement of the binding affinity by a factor (FT) ([1]; in comparison to Ac-Phe(2-CI)-PP[ProM-1]-OH): 1.2
pKd [2]: 5.42
ITC ΔG [2]: -31.0 kJ/mol

Compound: CC(=O)NC(Cc1ccccc1Cl)C(=O)N1CCCC12C=CC1CCC(C(=O)N3CCC4C=CC5C(C)CC(C(=O)O)N5C(=O)C43)N1C2=O (stereo not shown) [Ac-Phe(2-Cl)-[ProM-2][ProM-9]-OH]
pKd [1]: 6.55
FT ΔG [1]: -37.4 kJ/mol
pKd [2]: 6.16
ITC ΔG [2]: -35.2 kJ/mol
free enthalpy (Gibbs free energy) gain ΔΔG over the ligand optimization ([2]; determined by means of ITC, overall progression from the wild-type ligand): -15.9 kJ/mol

Compound: CCOC(=O)[C@@H]1C[C@@H](CC)[C@@H]2C=C[C@H]3CCN(C(=O)[C@@H]4CC[C@H]5C=C[C@]6(CCCN6C(=O)[C@H](Cc6ccccc6Cl)NC(C)=O)C(=O)N54)[C@@H]3C(=O)N12 [Ac[2-Cl—F][ProM-2][ProM-13]-OEt, Ac-Phe(2-CI)-[ProM-2][ProM-13]-OEt]
pKd [3]: 6.89
pKd [4]: 6.31
pKd [5]: 6.74
affinity for the target [6]: particularly strong affinity
pKd [7]: 6.51
pKd [8]: 6.40
pKd [9]: 6.55

Compound: CCOC(=O)[C@@H]1C[C@@H](C)[C@@H]2C=C[C@H]3CCN(C(=O)[C@@H]4CC[C@H]5C=C[C@]6(CCCN6C(=O)[C@H](Cc6ccccc6Cl)NC(C)=O)C(=O)N54)[C@@H]3C(=O)N12 [Compound III]
inhibition of ena/VASP-EVH1-mediated protein-protein interactions [6]: selectively inhibit
cellular toxicity [15]: non-toxic to cells
inhibition of migration of MDA MB 231 breast cancer cells [16]: more than 90%
pKd [17]: 6.55

Compound: CC(=O)N[C@@H](CO)C(=O)N[C@@H](Cc1ccccc1)C(=O)N[C@@H](CCC(=O)O)C(=O)N[C@@H](Cc1ccccc1)C(=O)N1CCC[C@H]1C(=O)N1CCC[C@H]1C(=O)N1CCC[C@H]1C(=O)N1CCC[C@H]1C(=O)N[C@H](C(=O)N[C@@H](CCC(=O)O)C(=O)N[C@@H](CC(=O)O)C(=O)N[C@@H](CCC(=O)O)C(=O)N[C@@H](CC(C)C)C(N)=O)[C@@H](C)O [reference compound]
pKd [2]: 4.70

Compound: Ac-Phe(2-Cl)-PPPP-OH
pKd [1]: 4.89
FT ΔG [1]: -27.8 kJ/mol
pKd [2]: 4.74
ITC ΔG [2]: -27.0 kJ/mol

Compound: NBD-Phe(2-CI)-[ProM-2]-[ProM-1]-OEt [NBD-Phe(2-CI)-[ProM-2][ProM-1]-OEt]
ability to be absorbed by the target cells [18]: improved

The remaining lines, values ahead:

pKd [3]: 5.39
pKd [4]: 5.03
pKd [5]: 5.39
pKd [7]: 5.11
fraction unbound [10]: 0.924
half-life [11]: > 60 min
microsomal CLint [11]: 26.4 µL/min/mg
fraction unbound [12]: 0.981
pKd [8]: 5.21
half-life [13]: > 60 min
microsomal CLint [13]: 35.6 µL/min/mg
pKd [9]: 5.24
Plasma stability, % remaining (Tlast 240 min) ([14]; human): 95.5%
half-life ([14]; human): > 240 min
Plasma stability, % remaining (Tlast 240 min) ([14]; mouse): 87.4%
half-life ([14]; mouse): > 240 min
Compound: CCOC(=O)C1CCC2C=CC3CCN(C(=O)C4CCC5C=CC6(CCCN6C(=O)C(Cc6ccccc6Cl)NC(C)=O)C(=O)N54)C3C(=O)N21 (stereo not shown) [Compound 4D, Ac-Phe(2-CI)-[ProM-2][ProM-1]-OEt]

Liver microsomal stability Clint [11]: 11.6 μl/min/mg protein
Liver microsomal stability t½ [11]: >60 min
Liver microsomal stability Clint [13]: 34.0 μl/min/mg protein
Liver microsomal stability t½ [13]: >60 min
Plasma stability, % remaining (Tlast 240 min) ([14]; human): 80.3%
Plasma stability, % remaining (Tlast 240 min) ([14]; mouse): 94.7%
Compound: Ac-Phe(2-CI)-[ProM-2][ProM-1]-NH2 [Compound 4C]

pKd [1]: 5.49
FT ΔG [1]: -31.4 kJ/mol
pKd [2]: 4.85
ITC ΔG [2]: -27.7 kJ/mol
Compound: Ac-Phe(2-Cl)-PP[ProM-1]-OH

pKd [1]: 6.40
FT ΔG [1]: -36.7 kJ/mol
pKd [2]: 5.10
ITC ΔG [2]: -29.1 kJ/mol
Compound: Ac-Phe(2-Cl)-PP[ProM-9]-OH

pKd [1]: 5.80
FT ΔG [1]: -33.1 kJ/mol
pKd [2]: 5.01
ITC ΔG [2]: -28.6 kJ/mol
Compound: Ac-Phe(2-Cl)-[ProM-2][ProM-4]-OH
